Source: patent US11034698B2, “Pyrazolo[ 1,5a]pyrimidine derivatives as IRAK4 modulators” (priority 2017, dated 2021)
Where a name gives a salt, the structure may show the parent alone. Read-outs that look alike come from different tables or passages of the source.

Target: human IRAK4 (Homo sapiens (Human), UniProt Q9NWZ3)
Test: IRAK4 kinase inhibition, Transcreener fluorescence polarization (ADP)
Type: biochemical
Method: Compounds were assayed for inhibition of human IRAK4 and IRAK1 catalytic activity using recombinant enzyme produced from insect cells. Full-length IRAK4 protein, carrying an N-terminal His6-Tag, was obtained from Life Technologies (Carlsbad, Calif., USA). The IRAK1 construct was produced internally and was comprised of IRAK1 residues Arg194 to Ser712, preceded by an NH2-terminal His6 tag and the coding sequence for glutathione-S-transferase.
Kinase activities were assayed using the Transcreener-Fluorecescence polarization platform (BelBrook Labs, Madison, Wis., USA) that measures amounts of the reaction product, ADP.

[1] = recombinant full-length His6-IRAK4 1.25 nM, 125 uM ATP, 125 uM peptide, 90 min, ATP Km 642 uM, read-out: IRAK4 Ki

human IRAK4, sequence (Q9NWZ3 whole entry): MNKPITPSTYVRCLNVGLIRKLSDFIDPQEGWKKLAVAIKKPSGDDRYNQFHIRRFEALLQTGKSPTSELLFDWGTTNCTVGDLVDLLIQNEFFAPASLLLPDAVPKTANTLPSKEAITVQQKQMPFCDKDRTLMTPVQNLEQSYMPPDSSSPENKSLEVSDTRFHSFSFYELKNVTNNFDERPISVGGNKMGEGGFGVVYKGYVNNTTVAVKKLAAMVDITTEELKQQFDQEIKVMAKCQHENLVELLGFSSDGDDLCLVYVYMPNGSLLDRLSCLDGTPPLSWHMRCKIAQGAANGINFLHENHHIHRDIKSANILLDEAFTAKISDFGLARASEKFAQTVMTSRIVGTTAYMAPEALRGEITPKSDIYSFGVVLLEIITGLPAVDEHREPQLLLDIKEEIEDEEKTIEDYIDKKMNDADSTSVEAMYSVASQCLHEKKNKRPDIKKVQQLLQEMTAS

Compound	Ki	Ki [1]
CN(C)c1cc2c(cc1NC(=O)c1cnn3cccnc13)CC(C)(C)[C@@H]2O (single isomer, unassigned) [Example 157]	310 nM	–
CC(C)N1CCN(c2cc3c(cc2NC(=O)c2cnn4cccnc24)CN(C[C@@H](F)C(C)(C)O)C3=O)CC1 [Example 113, (R)-N-(2-(2-Fluoro-3-hydroxy-3-methylbutyl)-6-(4-isopropylpiperazin-1-yl)-1-oxoisoindolin-5-yl)pyrazolo[1,5-a]pyrimidine-3-carboxamide]	–	7.5 nM
CC(C)(O)[C@H](F)CN1Cc2cc(NC(=O)c3cnn4cccnc34)c(N3CCN(CCn4ccnc4)CC3)cc2C1=O [Example 106, (R)-N-(6-(4-(2-(1H-Imidazol-1-yl)ethyl)piperazin-1-yl)-2-(2-fluoro-3-hydroxy-3-methylbutyl)-1-oxoisoindolin-5-yl)pyrazolo[1,5-a]pyrimidine-3-carboxamide]	–	2.1 nM
COc1cc2c(cc1NC(=O)c1cnn3ccc(C4CCNC4=O)nc13)CC(C)(C)O2 (stereo not shown) [Example 35, N-(6-Methoxy-2,2-dimethyl-2,3-dihydrobenzofuran-5-yl)-5-(2-oxopyrrolidin-3-yl)pyrazolo[1,5-a]pyrimidine-3-carboxamide]	–	100 nM
CC(C)(O)[C@H](F)CN1Cc2cc(NC(=O)c3cnn4cccnc34)c(OC3CCCC3)cc2C1=O [Example 80, (R)-N-(6-(Cyclopentyloxy)-2-(2-fluoro-3-hydroxy-3-methylbutyl)-1-oxoisoindolin-5-yl)pyrazolo[1,5-a]pyrimidine-3-carboxamide]	–	0.97 nM
CC(C)(O)[C@H](F)CN1Cc2cc(NC(=O)c3cnn4cccnc34)c(OC[C@H]3CNC(=O)C3)cc2C1=O (single isomer, unassigned) [Example 72]	1 nM	–
CC[C@H]1CC(=O)NN1C1CCN(c2cc3c(cc2NC(=O)c2cnn4cccnc24)CC(C)(C)O3)CC1 (single isomer, unassigned) [Example 18]	6.7 nM	–
COc1cc2c(cc1NC(=O)c1cnn3ccc(N[C@@H]4CCCNC4)nc13)CC(C)(C)O2 [Example 40, (R)-N-(6-Methoxy-2,2-dimethyl-2,3-dihydrobenzofuran-5-yl)-5-(piperidin-3-ylamino)pyrazolo[1,5-a]pyrimidine-3-carboxamide]	–	0.87 nM
Cc1nocc1CN1CCN(c2cc3c(cc2NC(=O)c2cnn4cccnc24)CC(C)(C)O3)CC1 [Example 14, N-(2,2-Dimethyl-6-(4-((3-methylisoxazol-4-yl)methyl)piperazin-1-yl)-2,3-dihydrobenzofuran-5-yl)pyrazolo[1,5-a]pyrimidine-3-carboxamide hydrochloride]	–	5.2 nM
CC(C)(O)[C@H](F)CN1Cc2cc(NC(=O)c3cnn4ccc(Cl)nc34)c(N3CCOCC3)cc2C1=O [Example 102, (R)-5-Chloro-N-(2-(2-fluoro-3-hydroxy-3-methylbutyl)-6-morpholino-1-oxoisoindolin-5-yl)pyrazolo[1,5-a]pyrimidine-3-carboxamide]	–	6.5 nM
CC1(C)Cc2cc(NC(=O)c3cnn4cccnc34)c(N3CCN(C[C@@H]4CCCC(=O)N4)CC3)cc2O1 [Example 6, (S)-N-(2,2-Dimethyl-6-(4-((6-oxopiperidin-2-yl)methyl)piperazin-1-yl)-2,3-dihydrobenzofuran-5-yl)pyrazolo[1,5-a]pyrimidine-3-carboxamide]	–	5.3 nM
CCOc1cc2c(cc1NC(=O)c1cnn3cccnc13)CN(C[C@@H](F)C(C)(C)O)C2=O [Example 82, (R)-N-(6-Ethoxy-2-(2-fluoro-3-hydroxy-3-methylbutyl)-1-oxoisoindolin-5-yl)pyrazolo[1,5-a]pyrimidine-3-carboxamide]	–	0.37 nM
CC(C)(O)[C@H](F)CN1Cc2cc(NC(=O)c3cnn4cccnc34)c(OC[C@@H]3CNC(=O)C3)cc2C1=O [Example 71, N-[2-[(2R)-2-Fluoro-3-hydroxy-3-methyl-butyl]-1-oxo-6-[[(3S)-5-oxopyrrolidin-3-yl]methoxy]isoindolin-5-yl]pyrazolo[1,5-a]pyrimidine-3-carboxamide]	–	3.2 nM
O=C(Nc1cc2c(cc1N1CCOCC1)OCCS2)c1cnn2cccnc12 [Example 153, N-(7-Morpholino-2,3-dihydro-1,4-benzoxathiin-6-yl)pyrazolo[1,5-a]pyrimidine-3-carboxamide]	–	280 nM
CC(C)(O)[C@H](F)CN1Cc2cc(NC(=O)c3cnn4cccnc34)c(OC3COC3)cc2C1=O [Example 87, (R)-N-(2-(2-Fluoro-3-hydroxy-3-methylbutyl)-6-(oxetan-3-yloxy)-1-oxoisoindolin-5-yl)pyrazolo[1,5-a]pyrimidine-3-carboxamide]	–	0.59 nM
CC(C)(O)[C@H](F)CN1Cc2cc(NC(=O)c3cnn4cccnc34)c(N3CCN4CCC[C@@H]4C3)cc2C1=O [Example 100, N-(2-((R)-2-Fluoro-3-hydroxy-3-methylbutyl)-6-((R)-hexahydropyrrolo[1,2-a]pyrazin-2(1H)-yl)-1-oxoisoindolin-5-yl)pyrazolo[1,5-a]pyrimidine-3-carboxamide]	–	1.8 nM

Compound	Ki	Ki [1]
Cc1ccc(-c2cc3c(cc2NC(=O)c2cnn4cccnc24)CC(C)(C)O3)nc1 [Example 145, N-[2,2-Dimethyl-6-(5-methyl-2-pyridyl)-3H-benzofuran-5-yl]pyrazolo[1,5-a]pyrimidine-3-carboxamide]	–	60 nM
C[C@@]1(CCC#N)COc2cc(N3CCOCC3)c(NC(=O)c3cnn4cccnc34)cc2C1 [Example 58, (S)—N-(3-(2-Cyanoethyl)-3-methyl-7-morpholinochroman-6-yl)pyrazolo[1,5-a]pyrimidine-3-carboxamide]	–	19 nM
CCc1nc[nH]c1CN1CCN(c2cc3c(cc2NC(=O)c2cnn4cccnc24)CC(C)(C)O3)CC1 [Example 9, N-[6-[4-[(4-Ethyl-1H-imidazol-5-yl)methyl]piperazin-1-yl]-2,2-dimethyl-3H-benzofuran-5-yl]pyrazolo[1,5-a]pyrimidine-3-carboxamide]	–	3.9 nM
COc1cc2c(cc1NC(=O)c1cnn3ccc(N)nc13)CC(C)(C)O2 [Example 41, 5-amino-N-(6-Methoxy-2,2-dimethyl-2,3-dihydrobenzofuran-5-yl)pyrazolo[1,5-a]pyrimidine-3-carboxamide]	–	4.6 nM
CC(C)(O)[C@H](F)CN1Cc2cc(NC(=O)c3cnn4cccnc34)c(OCC(F)F)cc2C1=O [Example 65, (R)-N-(6-(2,2-Difluoroethoxy)-2-(2-fluoro-3-hydroxy-3-methylbutyl)-1-oxoisoindolin-5-yl)pyrazolo[1,5-a]pyrimidine-3-carboxamide]	–	0.26 nM
CN(C)CCN1CCN(c2cc3c(cc2NC(=O)c2cnn4cccnc24)CC(C)(C)O3)CC1 [Example 4, N-(6-(4-(2-(Dimethylamino)ethyl)piperazin-1-yl)-2,2-dimethyl-2,3-dihydrobenzofuran-5-yl)pyrazolo[1,5-a]pyrimidine-3-carboxamide]	–	41 nM
Cn1ccc2cc(NC(=O)c3cnn4cccnc34)c(N3CCOCC3)cc2c1=O [Example 152, N-(2-Methyl-7-morpholino-1-oxo-1,2-dihydroisoquinolin-6-yl)pyrazolo[1,5-a]pyrimidine-3-carboxamide]	–	210 nM
Cc1nc[nH]c1CN1CCN(c2cc3c(cc2NC(=O)c2cnn4cccnc24)CC(C)(C)O3)CC1 [Example 8, N-(2,2-Dimethyl-6-(4-((4-methyl-1H-imidazol-5-yl)methyl)piperazin-1-yl)-2,3-dihvdrobenzofuran-5-yl)pyrazolo[1,5-a]pyrimidine-3-carboxamide]	–	3.8 nM
C[C@H]1C[C@@H]2CN(c3cc4c(cc3NC(=O)c3cnn5cccnc35)CN(C[C@@H](F)C(C)(C)O)C4=O)CCN2C1 [Example 110, N-[6-[(7S,8aR)-7-Methyl-3,4,6,7,8,8a-hexahydro-1H-pyrrolo[1,2-a]pyrazin-2-yl]-2-[(2R)-2-fluoro-3-hydroxy-3-methyl-butyl]-1-oxo-isoindolin-5-yl]pyrazolo[1,5-a]pyrimidine-3-carboxamide]	–	7.5 nM
CC(=O)Nc1ccn2ncc(C(=O)Nc3cc4c(cc3N(C)C)C(=O)N(C[C@@H](F)C(C)(C)O)C4)c2n1 [Example 131, (R)-5-Acetamido-N-(6-(dimethylamino)-2-(2-fluoro-3-hydroxy-3-methylbutyl)-1-oxoisoindolin-5-yl)pyrazolo[1,5-a]pyrimidine-3-carboxamide]	–	6.4 nM
COCCN1CCN(c2cc3c(cc2NC(=O)c2cnn4cccnc24)CN(C[C@@H](F)C(C)(C)O)C3=O)CC1 [Example 112, (R)-N-(2-(2-Fluoro-3-hydroxy-3-methylbutyl)-6-(4-(2-methoxyethyl)piperazin-1-yl)-1-oxoisoindolin-5-yl)pyrazolo[1,5-a]pyrimidine-3-carboxamide]	–	2.6 nM
CC(C)(O)[C@H](F)CN1Cc2cc(NC(=O)c3cnn4cccnc34)c(C3COC3)cc2C1=O [Example 147, N-[2-[(2R)-2-Fluoro-3-hydroxy-3-methyl-butyl]-6-(oxetan-3-yl)-1-oxo-isoindolin-5-yl]pyrazolo[1,5-a]pyrimidine-3-carboxamide]	–	48 nM
CCN1C[C@@H](COc2cc3c(cc2NC(=O)c2cnn4cccnc24)CC(C)(C)O3)CC1=O (single isomer, unassigned) [Example 23]	250 nM	–
CC(C)(O)[C@H](F)CN1Cc2cc(NC(=O)c3cnn4cccnc34)c(OC3CNC3)cc2C1=O [Example 73, N-[6-(Azetidin-3-yloxy)-2-[(2R)-2-fluoro-3-hydroxy-3-methyl-butyl]-1-oxo-isoindolin-5-yl]pyrazolo[1,5-a]pyrimidine-3-carboxamide hydrochloride]	–	3.7 nM
CC1(C)Cc2cc(NC(=O)c3cnn4cccnc34)c(O[C@H]3CN(CC(N)=O)C[C@@H]3N)cc2O1 [Example 19, N-(6-(((3S,4S)-4-Amino-1-(2-amino-2-oxoethyl)pyrrolidin-3-yl)oxy)-2,2-dimethyl-2,3-dihydrobenzofuran-5-yl)pyrazolo[1,5-a]pyrimidine-3-carboxamide]	–	53 nM
